Experimental data taken from patent US8293768B2, “Organic compounds” (Novartis AG, priority 2006, dated 2012).

SMILES	melting point [°C]
O=C(NCc1cccnc1)c1cnc(N2CCN(CC3CC3)C2=O)s1 [Example 26, 2-(3-(cyclopropylmethyl)-2-oxoimidazolidin-1-yl)-N-(pyridin-3-ylmethyl)thiazole-5-carboxamide]	190 to 192
Cc1nc(N2CCN(Cc3ccccc3)/C2=N\C#N)sc1C(=O)NCc1ccccc1 [Example 27, N-benzyl-2-(3-benzyl-2-(cyanoimino)imidazolidin-1-yl)-4-methylthiazole-5-carboxamide]	226 to 228
Cc1nc(N2CCN(Cc3ccccc3)S2(=O)=O)sc1C(=O)NCc1ccccc1 [Example 27.1, N-benzyl-2-(5-benzyl-1,1-dioxido-1,2,5-thiadiazolidin-2-yl)-4-methyl-1,3-thiazole-5-carboxamide]	135 to 137
Cc1nc(N2CCN(Cc3ccccc3)S2(=O)=O)sc1C(=O)NCc1cccnc1 [Example 27.2, 2-(5-benzyl-1,1-dioxido-1,2,5-thiadiazolidin-2-yl)-4-methyl-N-(pyridin-3-ylmethyl)-1,3-thiazole-5-carboxamide]	140 to 142
Cc1nc(N2CCN(Cc3ccccc3)C2=N)sc1C(=O)NCc1ccc(F)cc1 [Example 27.4, 2-(3-benzyl-2-iminoimidazolidin-1-yl)-N-(4-fluorobenzyl)-4-methylthiazole-5-carboxamide]	142 to 144
Cc1nc(N2CCN(Cc3ccccc3)C2=N)sc1C(=O)NCc1ccc(F)c(F)c1 [Example 27.5, 2-(3-benzyl-2-iminoimidazolidin-1-yl)-N-(3,4-difluorobenzyl)-4-methylthiazole-5-carboxamide]	140 to 142
Cc1cc(-n2cnn(Cc3ccc(F)cc3)c2=O)sc1C(=O)NCc1cccnc1 [Example 31, 5-(1-(4-fluorobenzyl)-5-oxo-1H-1,2,4-triazol-4(5H)-yl)-3-methyl-N-(pyridin-3-ylmethyl)thiophene-2-carboxamide]	180 to 182
Cc1cc(-n2cnn(Cc3ccccc3)c2=O)sc1C(=O)NCc1cccnc1 [Example 31.1, 5-(1-benzyl-5-oxo-1H-1,2,4-triazol-4(5H)-yl)-3-methyl-N-(pyridin-3-ylmethyl)thiophene-2-carboxamide]	180 to 181
Cc1cc(-n2cnn(CCC3CC3)c2=O)sc1C(=O)NCc1cccnc1 [Example 31.2, 5-(1-(2-cyclopropylethyl)-5-oxo-1H-1,2,4-triazol-4(5H)-yl)-3-methyl-N-(pyridin-3-ylmethyl)thiophene-2-carboxamide]	148 to 150
Cc1cc(-n2cnn(Cc3ccc(C(F)(F)F)cc3)c2=O)sc1C(=O)NCc1cccnc1 [Example 31.3, 3-methyl-5-(5-oxo-1-(4-(trifluoromethyl)benzyl)-1H-1,2,4-triazol-4(5H)-yl)-N-(pyridin-3-ylmethyl)thiophene-2-carboxamide]	176 to 178
Cc1cc(-n2cnn(Cc3ccc(S(C)(=O)=O)cc3)c2=O)sc1C(=O)NCc1cccnc1 [Example 31.4, 3-methyl-5-(1-(4-(methylsulfonyl)benzyl)-5-oxo-1H-1,2,4-triazol-4(5H)-yl)-N-(pyridin-3-ylmethyl)thiophene-2-carboxamide]	208 to 210
Cc1cnc(CNC(=O)c2sc(-n3cnn(Cc4ccc(F)cc4)c3=O)cc2C)cn1 [Example 31.5, 5-(1-(4-fluorobenzyl)-5-oxo-1H-1,2,4-triazol-4(5H)-yl)-3-methyl-N-((5-methylpyrazin-2-yl)methyl)thiophene-2-carboxamide]	189 to 191
Cc1cc(-n2cnn(Cc3ccc(F)cc3)c2=O)sc1C(=O)NCc1ncco1 [Example 31.6, 5-(1-(4-fluorobenzyl)-5-oxo-1H-1,2,4-triazol-4(5H)-yl)-3-methyl-N-(oxazol-2-ylmethyl)thiophene-2-carboxamide]	163 to 165
Cc1cc(-n2cnn(Cc3ccc(F)cc3)c2=O)sc1C(=O)NCc1cnn(C)c1 [Example 31.7, 5-(1-(4-fluorobenzyl)-5-oxo-1H-1,2,4-triazol-4(5H)-yl)-3-methyl-N-((1-methyl-1H-pyrazol-4-yl)methyl)thiophene-2-carboxamide]	168 to 170
Cc1nc(CNC(=O)c2sc(-n3cnn(Cc4ccc(F)cc4)c3=O)cc2C)cs1 [Example 31.8, 5-(1-(4-fluorobenzyl)-5-oxo-1H-1,2,4-triazol-4(5H)-yl)-3-methyl-N-((2-methylthiazol-4-yl)methyl)thiophene-2-carboxamide]	148 to 150
Cc1nc(N2CCN(Cc3csc4ccc(Cl)cc34)C2=O)sc1C(=O)NCc1cccnc1 [Example 32, 2-(3-((5-chlorobenzo[b]thiophen-3-yl)methyl)-2-oxoimidazolidin-1-yl)-4-methyl-N-(pyridin-3-ylmethyl)thiazole-5-carboxamide]	185 to 187

Results, then the compound that gave them:

melting point [°C]	SMILES
151 to 153	Cc1nc(N2CCN(Cc3nccc4ccccc34)C2=O)sc1C(=O)NCc1cccnc1 [Example 32.1, 2-(3-(isoquinolin-1-ylmethyl)-2-oxoimidazolidin-1-yl)-4-methyl-N-(pyridin-3-ylmethyl)thiazole-5-carboxamide]
225 to 228	Cc1nc(N2CCN(Cc3cccc4cccnc34)C2=O)sc1C(=O)NCc1cccnc1 [Example 32.2, 4-methyl-2-(2-oxo-3-(quinolin-8-ylmethyl)imidazolidin-1-yl)-N-(pyridin-3-ylmethyl)thiazole-5-carboxamide]
185 to 188	Cc1cc(CN2CCN(c3nc(C)c(C(=O)NCc4cccnc4)s3)C2=O)no1 [Example 32.3, 4-methyl-2-(3-((5-methylisoxazol-3-yl)methyl)-2-oxoimidazolidin-1-yl)-N-(pyridin-3-ylmethyl)thiazole-5-carboxamide]
109 to 111	Cc1nc(N2CCN(Cc3c(C)noc3-c3ccccc3)C2=O)sc1C(=O)NCc1cccnc1 [Example 32.4, 4-methyl-2-(3-((3-methyl-5-phenylisoxazol-4-yl)methyl)-2-oxoimidazolidin-1-yl)-N-(pyridin-3-ylmethyl)thiazole-5-carboxamide]
78 to 81	Cc1nc(N2CCN(Cc3ncoc3-c3ccccc3)C2=O)sc1C(=O)NCc1cccnc1 [Example 32.5, 4-methyl-2-(2-oxo-3-((5-phenyloxazol-4-yl)methyl)imidazolidin-1-yl)-N-(pyridin-3-ylmethyl)thiazole-5-carboxamide]
110 to 112	Cc1nc(N2CCN(Cc3ccc4nonc4c3)C2=O)sc1C(=O)NCc1cccnc1 [Example 32.6, 2-(3-(benzo[c][1,2,5]oxadiazol-5-ylmethyl)-2-oxoimidazolidin-1-yl)-4-methyl-N-(pyridin-3-ylmethyl)thiazole-5-carboxamide]
105 to 107	Cc1nc(N2CCN(Cc3ccc4nsnc4c3)C2=O)sc1C(=O)NCc1cccnc1 [Example 32.7, 2-(3-(benzo[c][1,2,5]thiadiazol-5-ylmethyl)-2-oxoimidazolidin-1-yl)-4-methyl-N-(pyridin-3-ylmethyl)thiazole-5-carboxamide]
110 to 113	Cc1nc(N2CCN(Cc3cccnc3)C2=O)sc1C(=O)NCc1ccccc1 [Example 32.9, N-benzyl-4-methyl-2-(2-oxo-3-(pyridin-3-ylmethyl)imidazolidin-1-yl)thiazole-5-carboxamide]
